Entries after “also recorded” stand apart in the source; their conditions may differ.
How the values were obtained:
[1] = test system: p53; test: suppression of p53-dependent transcriptional activation (lacZ, X-gal staining) in ConA cells treated with doxorubicin; assay type: cell-based, mouse; settings: 0.2 μg/ml doxorubicin, 24 hours; test compounds about 10 to about 20 μM
[2] = test system: p53; test: long-term survival and cancer development of mice after whole body radiation; assay type: in vivo; settings: 30 survivors rescued from lethal gamma irradiation, seven months after irradiation
Protocol: Both wild-type (wt) mice and p53-deficient mice were irradiated. One group of the wild-type mice were treated with PFT-α. […] In contrast, fifteen untreated wild-type mice died within 100 days. The p53-deficient mice were unaffected for about 125 days, then all expired over the next 25–30 days.
Suppression of p53 typically results in the survival of cells that otherwise are eliminated by p53, which can increase the risk of new cancer development. For example, p53-deficient mice are extremely sensitive to radiation-induced tumorigenesis. […] Thus, temporary suppression of p53 activity is different from p53 deficiency in terms of cancer predisposition.

[3] = test system: p53; test: 14C-thymidine incorporation in tissues of gamma-irradiated mice (autoradiograms); assay type: in vivo, mouse; settings: 10 Gy; single i.p. injection 2.2 mg/kg five minutes before irradiation
Protocol: Four-week-old p53-deficient mice and p53 wild-type (wt) mice were whole body gamma irradiated (10 Gy). Pifithrin-alpha was injected in one of the p53 wild-type animals five minutes before irradiation. ^14C-thymidine (10 mCi per animal) was injected intraperitoneally into each mouse 8 hours after irradiation. The mice were sacrificed 24 hours after irradiation and whole body sectioned (25 μm thick) using cryostatic microtome were prepared and exposed to X-ray film to monitor the distribution of ^14C in the tissue. FIG. 8 presents autoradiograms of representative sections. Arrows indicate ^14C-thymidine incorporation in the skin and intestine.

[4] = toxicity of chemotherapeutics with p53 inhibitor; settings: mouse, in vivo
[5] = test system: tumor; test: tumor volume in C57BL mice treated with cyclophosphamide; assay type: in vivo, mouse; settings: CTX at days 0, 1, and 2, sixteen days
Protocol: FIG. 15 is a plot of tumor volume vs. days for C57BL mice treated with cyclophosphamide (CTX), with and without administration of PFT-β. The mice were treated with CTX at days 0, 1, and 2, and tumor volume was monitored for sixteen days.

[6] = test system: p53; test: p53 protein in UV-irradiated ConA cells (immunoblotting, two-dimensional gel, nuclear and cytoplasmic fractions); assay type: cell-based, mouse
Protocol: PFT-α was added to the cells before UV treatment and total cell lysates were prepared 18 hours later.
FIG. 6(d) illustrates that PFT-α changes the nuclear and cytoplasmic distribution of p53. Nuclear and cytoplasmic fractions were isolated from UV-treated ConA cells 6 hours after UV irradiation. p53 and p21^waf1 proteins were detected by immunoblotting. […] In particular, results of a gel shift assay using cell lysates from either untreated or UV-irradiated ConA cells grown in medium containing PFT-α are shown. […] The decline in the amount of bound DNA is proportional to the overall decrease in p53 content in the presence of PFT-α.

[7] = test system: p53-deficient tumor xenografts; test: therapy response of p53-deficient tumors in mice; assay type: in vivo, mouse; settings: mouse, in vivo
Excerpt: The above-described tests using PFT-α and PFT-β illustrate the therapeutic use of temporary p53 inhibitors to reduce the side effects of radiation therapy or chemotherapy for human cancers that have lost functional p53.

[8] = toxicity comparison (FIG. 16); settings: compared with PFT-α
Protocol: Then, a p53 inhibitor was applied in a concentration of 1 μM to 20 μM to the test cells in the presence of the p53 activator. Cytotoxicity of the p53 inhibitors also was determined by standard assays. An estimation of antiapoptotic activity of the p53 inhibitor compounds was based on an ability to suppress apoptotic cell death in standard cell systems sensitive to p53-dependent apoptosis (i.e., mouse embryonic fibroblasts transformed with Ela+ras, line C8, described by S. W. Lowe et al., Cell, 74, pp. 957–968 (1993)). p53 dependence of the compound activity was analyzed by testing its effect on p53-deficient cells (i.e., radiosensitivity or drug sensitivity of p53−/− mouse embryonic fibroblasts transformed with Ela+ras, line A4, described by Lowe et al., 1993).
(§1) As previously stated, the tests and experiments set forth in FIGS. 1–15 using PFT-α were repeated using PFT-β.

[9] = test system: p53; test: tests and experiments of FIGS. 1–15 repeated using PFT-β
Excerpt: The results of these tests are illustrated in attached FIGS. 1–16. These figures, in general, are based on tests performed on compounds of structural formulae (V) and (VI). In the following Figures, test results illustrated for compound (V), i.e., PFT-α, were repeated for compound (VI), i.e., PFT-β.
as §1

[10] = test system: p53; test: survival of mice after whole-body gamma irradiation; assay type: in vivo, mouse; settings: 2.2 mg/kg i.p. five minutes prior to irradiation
Protocol: In particular, FIG. 7 illustrates that pifithrin-alpha protects mice from radiation-induced death. In this test, two different strains of mice (C57BL and Balb(c)) were treated with lethal and sublethal doses of whole-body gamma radiation. A comparison was made between (i) untreated unirradiated mice, (ii) unirradiated mice that received a single intraperitoneal (i.p.) injection of PFT-α, (iii) untreated gamma-irradiated mice, and (iv) mice injected intraperitoneally with PFT-α immediately before gamma irradiation.
In the plots of FIG. 7, whole-body gamma irradiated mice (60 total) were divided into four groups. Ten mice from each group were injected i.p. with pifithrin-alpha (2.2 mg/kg) five minutes prior to irradiation. […] The experiments were repeated at least three times with 10 mice per each experimental subgroup.

Row | Structure (SMILES) | suppression of p53-dependent lacZ expression (X-gal) [1] | tumors or pathological lesions in survivors / tumor incidence in irradiated animals [2] | p53-mediated growth arrest in vivo (14C-thymidine incorporation) [3] | toxicity of chemotherapeutics [4] | tumor growth (tumor volume) [5] | nuclear and cytoplasmic distribution of p53 ([6]; 6 hours after UV irradiation) | phosphorylation / post-translational modifications of p53 ([6]; after DNA-damaging treatments) | efficacy of chemo- or radiation therapy of p53 deficient mouse tumors [7] | toxicity [8] | test results compared with PFT-α [9] | survival at higher, lethal doses of irradiation [10]
1 | N=c1sc2c(n1CC(=O)c1ccc(I)cc1)CCCC2 [86B10, 2-[2-imino-4,5,6,7-tetrahydro-1,3-benzothiazol-3(2H)-yl]-1-(4-iodophenyl)-1-ethanone] | similar, but weaker, p53-inhibition, effect than PFT-α |  |  |  |  |  |  |  |  |  | 
2 | Cc1ccc(-c2cn3c4c(sc3n2)CCCC4)cc1 [PFT-β, 2-(4-methylphenyl)-5,6,7,8-tetrahydrobenzo[d]imidazo[2,1-b]thiazole] |  | do not result in a high incidence of tumors in irradiated animals | suppress p53-dependent radiation-induced growth arrest in rapidly proliferating mouse tissues | reduce the toxicity of chemotherapeutics | substantial decrease in tumor growth | reduce nuclear accumulation of p53 | do not effect either post-translational modifications of p53 or the DNA binding affinity of p53 | do not reduce the efficacy of chemo- or radiation therapy of p53 deficient mouse tumors | substantially lower than the toxicity of PFT-α | essentially identical to test results using PFT-α; also recorded: essentially identical to the results from the tests using PFT-α | rescue mice from lethal doses of gamma radiation using a single i.p. injection

From patent US6982277B2, “P53 inhibitors and therapeutic use of the same” (The Board of Trutees of the University of Illinois, priority 1999, dated 2006)
